Laboratory results published in paper PMC2784364, “VX-166: a novel potent small molecule caspase inhibitor as a potential therapy for sepsis” (Critical Care, 2009).
Entries after “also recorded” stand apart in the source; their conditions may differ.

What was measured:
cathepsin B = molecular target: T1, cathepsin B (Homo sapiens, UniProt P07858); experiment: Cathepsin B counter-screen; assay type: biochemical; settings: highest concentration tested
T1 construct: purchased Merck Biosciences Ltd. (Nottingham, UK)
Procedure: Active recombinant caspase-1, -3, -4, -7 and -8 were prepared as described previously. Caspase-2 was purchased from Biomol (Exeter, UK), caspase-6 from BD Biosciences (Oxford, UK), caspase-9 from Europa Bioproducts Ltd. (Cambridge, UK) and caspase-10 from Chemicon International Inc. (Harrow, UK). Cathepsin B and granzyme B were purchased from Merck Biosciences Ltd. (Nottingham, UK). Fluorogenic protease substrates were purchased from Bachem Ltd. (St. Helens, UK). All reactions were carried out at 37°C using a Molecular Devices (Wokingham, UK) Gemini plate-reader at 460 nm (excitation wavelength of 390 nm). Caspase inhibition assays were conducted, with minor modifications, as described by Margolin and colleagues. Irreversible kinetics were analysed by calculations of second-order inactivation rate constants (k) using GraphPad (La Jolla, CA, USA) Prism 4.0 software. A larger number for an inactivation rate constant indicates a greater degree of inactivation. To determine the inhibitory effect on cathepsin B, 4.25 nM of the enzyme were added to 250 μM z-RR-AMC in 10 mM 2-morpholino-ethanesulfonic acid pH 6.0, 1 mM DTT, 1 mM EDTA and 0.03% Brij35 in the presence or absence of VX-166 and the reaction monitored continuously over 15 minutes. Granzyme B was assayed, with minor modifications, as described by Thornberry and colleagues. […]

Sprague-Dawley rats = experiment: Caecal ligation and puncture in the rat, survival; assay type: in vivo; settings: rat CLP; for survival at day 10: control 40%
Procedure: (§1) CLP studies were performed in accordance with the National Institutes of Health guidelines for the use of experimental animals and were approved by the Institutional Animal Care and Use Committee of the Feinstein Institute for Medical Research. Adult male Sprague-Dawley rats (weighing 275 to 325 g, Charles River Laboratories, Wilmington, MA, USA) were fasted overnight then anaesthetised with isoflurane. The caecum was exposed via a 2 cm midline incision. It was ligated just distal to the ileocaecal valve, then punctured twice with an 18-gauge needle and gently squeezed to release a small amount of faecal material to ensure patency of the perforation sites before the abdominal incision was closed. Sham-operated rats underwent the same procedure with the exception that the caecum was neither ligated nor punctured. Animals received subcutaneous fluids (30 ml/kg saline) immediately after the procedure. No antibiotics were administered. In the 7 and 10 day survival studies animals were re-anaesthetised 20 hours after CLP, the perforated caecum was removed and the abdominal cavity washed twice with 40 ml of warm, sterilised saline. The abdominal cavity was closed, anaesthetics withdrawn and rats returned to their cages where they were allowed free access to food and water. In the 20 hour endpoint study the caecum was not removed. In this study blood samples were collected by cardiac puncture under terminal anaesthesia into heparinised syringes for the subsequent measurement of IL-1β and bacterial endotoxin, while the thymus was removed for analysis of thymocyte apoptosis.
Alzet® mini-osmotic pumps (Durect Corporation, Cupertino, CA, USA) were used for continuous delivery of VX-166 or vehicle (25% dimethyl sulphoxide: 75% propylene glycol). Pumps with a 2 ml reservoir capacity and a 10 μl//h delivery rate were used in all studies. These pumps are designed to deliver for seven days and so would have expired two to three days before the end of the 10 day survival studies. The mini-osmotic pumps were filled with VX-166 (5 to 25 mg/ml or vehicle) and primed overnight at 37°C prior to subcutaneous implantation in anaesthetised rats. The 25 mg/ml concentration of VX-166 equates to an approximate dose of 0.83 mg/kg/h for a 300 g rat. The pumps were implanted immediately following CLP, except in the delayed onset of treatment study in which pumps were implanted either immediately following CLP (0 hour) or 3 or 8 hours following CLP. Sham-operated rats were implanted with vehicle filled mini-osmotic pumps.

thymocytes = experiment: CLP rat, thymocyte apoptosis by flow cytometry; assay type: in vivo; settings: 20 hours, 25 mg/ml pump, n = 10
Procedure: as §1, with “In this study blood samples were collected by cardiac puncture under terminal anaesthesia into heparinised syringes for the subsequent measurement of IL-1β and bacterial endotoxin, while the thymus was removed for analysis of thymocyte apoptosis.” left out
Rat PBMC were isolated from heparinised blood by Ficoll Paque (GE Healthcare Bio-Sciences Corp., Piscataway, NJ, USA) density gradient centrifugation and washed three times with PBS (Invitrogen, Carlsbad, CA, USA). […] Cells were then washed twice in PBS, counted and reconstituted in Ca^2+-rich Annexin-V binding buffer (BD Biosciences, San Jose, CA, USA) at a concentration of 1 × 10^7 cells/ml. […] Cells were then analysed by flow cytometry with the FACS-Calibur (BD Biosciences, San Jose, CA, USA) and percentages of viable (Annexin-V^-/PI^-), early apoptotic (Annexin-V^+/PI^-), late apoptotic (Annexin-V^+/PI^+) and necrotic (Annexin-V^-/PI^+) cells were determined.

IL-1β = experiment: CLP rat, plasma IL-1β by ELISA; assay type: in vivo; settings: 20 hours, 25 mg/ml pump, n = 10, P < 0.05
Procedure: CLP studies were performed in accordance with the National Institutes of Health guidelines for the use of experimental animals and were approved by the Institutional Animal Care and Use Committee of the Feinstein Institute for Medical Research. Adult male Sprague-Dawley rats (weighing 275 to 325 g, Charles River Laboratories, Wilmington, MA, USA) were fasted overnight then anaesthetised with isoflurane. The caecum was exposed via a 2 cm midline incision. It was ligated just distal to the ileocaecal valve, then punctured twice with an 18-gauge needle and gently squeezed to release a small amount of faecal material to ensure patency of the perforation sites before the abdominal incision was closed. Sham-operated rats underwent the same procedure with the exception that the caecum was neither ligated nor punctured. […]
Blood samples were centrifuged at 1500 g for 15 minutes at 4°C, the plasma was removed and stored at -80°C until analysis. Plasma IL-1β levels were determined by ELISA (R&D Systems Inc., Minneapolis, MN, USA) following the manufacturer's instructions. Plasma endotoxin levels were determined using a Limulus amebocyte lysate (LAL) kit (Associates of Cape Cod, Inc., East Falmouth, MA, USA) according to the manufacturer's instruction. […] The optical density was determined at 405 nm using a spectrophotometer. The levels of endotoxin were then calculated and expressed as EU/ml.

What does the source list for `CCC(C(=O)NC(CC(=O)O)C(=O)COc1c(F)c(F)cc(F)c1F)n1cccc(NC(=O)OC)c1=O` (stereo not shown) [VX-166]?
inhibition at 50 µM (cathepsin B): 19%; survival over 10 days compared with vehicle control, second study (Sprague-Dawley rats; 25 mg/ml mini-osmotic pump immediately after CLP, n = 16): improved survival; survival at day 7 (Sprague-Dawley rats; 25 mg/ml mini-osmotic pump implanted immediately following CLP, n = 12, control 25%): 67%; survival at day 10 (Sprague-Dawley rats; 25 mg/ml pump started 0 hours after CLP, n = 12, P = 0.026): 83%; survival at day 10 (Sprague-Dawley rats; 25 mg/ml pump started 3 hours after CLP, n = 12, P = 0.009): 92%; survival at day 10 (Sprague-Dawley rats; 25 mg/ml pump started 8 hours after CLP, n = 12, P = 0.19): 66%; level of necrotic thymocytes between groups (thymocytes): remained unchanged; percentage of early apoptotic thymocytes vs vehicle CLP group (thymocytes): significantly inhibited thymic atrophy and lymphocyte apoptosis; also recorded: reduced the percentage of early apoptotic thymocytes; percentage of viable thymocytes vs vehicle CLP group (thymocytes): significantly increased the percentage of viable cells; plasma IL-1β level vs vehicle CLP (IL-1β): significant reduction
